From patent publication US12264173B2 (GILEAD SCIENCES, INC., priority 2020, dated 2025) come the findings set out here.

Like-named read-outs stand apart in the source and are kept apart here.

One assay deals with RSV A2. The experiment in a line: RSV NHBE EC50 (RSV A2 antiviral assay in NHBE cells). Conditions: Table 3, NHBE cells, RSV A2, 4 days, read-out: RSV NHBE EC50. In kind it is cell-based. Here is the method: Normal human bronchial epithelial (NHBE) cells were purchased from Lonza (Walkersville, MD, Cat #CC-2540) and cultured in Bronchial Epithelial Growth Media (BEGM) (Lonza, Walkersville, MD, Cat #CC-3170). The cells were passaged 1-2 times per week to maintain <80% confluency. The NHBE cells were discarded after 6 passages in culture.
To conduct the RSV A2 antiviral assay, NHBE cells were plated in 96-well plates at a density of 7,500 cells per well in BEGM and allowed to attach overnight at 37° C. Following attachment, 100 μL of cell culture media was removed and 3-fold serially diluted compound was added using a Hewlett-Packard D300 Digital Dispenser. The final concentration of DMSO was normalized to 0.05%. Following compound addition, the NHBE cells were infected by the addition of 100 μL of RSV A2 at a titer of 1×10^4.5 tissue culture infectious doses/mL in BEGM and then incubated at 37° C. for 4 days. The NHBE cells were then allowed to equilibrate to 25° C. and cell viability was determined by removing 100 μL of culture medium and adding 100 μL of Cell-Titer Glo viability reagent. The mixtures were incubated for 10 minutes at 25° C., and the luminescence signal was quantified on an Envision luminescence plate reader.

The next assay concerns RSV strain A2. The experiment in a line: microbe, parasite or virus in culture. In kind it is cell-based. The following applies: Table 3, HEp-2 cells, RSV A2, 4 days, read-out: RSV HEp-2 EC50. Here is the method:
Antiviral activity against RSV is determined using an infectious cytopathic cell protection assay in HEp-2 cells. In this assay, compounds inhibiting viral infection and/or replication produce a cytoprotective effect against the virus-induced cell killing that can be quantified using a cell viability reagent. The techniques used here are novel adaptations of methods described in published literature (Chapman et al., Antimicrob Agents Chemother. 2007, 51(9):3346-53.).
HEp-2 cells are obtained from ATCC (Manassas, VI) and maintained in MEM media supplemented with 10% fetal bovine serum and penicillin/streptomycin. Cells are passaged twice a week and kept at subconfluent stage. Commercial stock of RSV strain A2 (Advanced Biotechnologies, Columbia, MD) is titered before compound testing to determine the appropriate dilution of the virus stock that generates desirable cytopathic effect in HEp-2 cells.
For antiviral tests, HEp-2 cells are grown in large cell culture flasks to near confluency but not fully so. The compounds to be tested are prediluted in DMSO in 384-well compound dilution plates, either in an 8 or 40 sample per plate standardized dose response format. 3-fold serial dilution increments of each test compound are prepared in the plates and test samples are transferred via acoustic transfer apparatus (Echo, Labcyte) at 100 nL per well into cell culture assay 384-well plates. Each compound dilution is transferred in single or quadruplicate samples into dry assay plates, which are stored until assay is ready to go. The positive and negative controls are laid out in opposite on ends of the plate in vertical blocks (1 column).
Subsequently, an infectious mixture is prepared using an appropriate dilution of virus stock previously determined by titration with cells at a density of 50,000/mL and 20 µL/well is added to test plates w/compounds via automation (uFlow, Biotek). Each plate includes negative and positive controls (16 replicates each) to create 0% and 100% virus inhibition standards, respectively. Following the infection with RSV, testing plates are incubated for 4 days in a 37° C. cell culture incubator. After the incubation, a cell viability reagent, Cell TiterGlo (Promega, Madison, WI) is added to the assay plates, which are incubated briefly, and a luminescent readout is measured (Envision, Perkin Elmer) in all the assay plates. The RSV-induced cytopathic effect, percentage inhibition, is determined from the levels of remaining cell viability. […] Various potent anti-RSV tool compounds are used as positive controls for antiviral activity.

Setting [1] is: human respiratory syncytial virus, NHBE, 96 h.
[2] abbreviates: human respiratory syncytial virus, HEp-2, 96 h.

In general, EC50 refers to the concentration at which the effect is half-maximal. For `CCCCOC(=O)[C@H](C)NP(=O)(OC[C@@]1(C#N)O[C@@H](c2ccc3c(N)ncnn23)[C@H](OC(=O)C(C)C)[C@@H]1OC(=O)C(C)C)Oc1ccccc1` (mixture of isomers) [Example 225, (2R,3S,4S,5S)-5-(4-aminopyrrolo[2,1-f][1,2,4]triazin-7-yl)-2-((((((S)-1-butoxy-1-oxopropan-2-yl)amino)(phenoxy)phosphoryl)oxy)methyl)-2-cyanotetrahydrofuran-3,4-diyl bis(2-methylpropanoate)], the concentration giving a half-maximal response (EC50) with RSV A2 (setting [1]) is 14 nM. Regarding `CCOC(=O)[C@H](C)NP(=O)(OC[C@@]1(C#N)O[C@@H](c2ccc3c(N)ncnn23)[C@H](OC(=O)C(C)C)[C@@H]1OC(=O)C(C)C)Oc1ccccc1` (mixture of isomers) [Example 248, (2R,3S,4S,5S)-5-(4-aminopyrrolo[2,1-f][1,2,4]triazin-7-yl)-2-cyano-2-((((((S)-1-ethoxy-1-oxopropan-2-yl)amino)(phenoxy)phosphoryl)oxy)methyl)tetrahydrofuran-3,4-diyl bis(2-methylpropanoate)], the EC50 with RSV strain A2 (setting [2]) came out at 23 nM.

With `CCCCOC(=O)C(C)NP(=O)(OCC1(C#N)OC(c2ccc3c(N)ncnn23)C(OC(=O)C(C)C)C1OC(=O)C(C)C)Oc1ccccc1` (single isomer, unassigned) [Example 226], the EC50 in the assay with RSV A2 and in the assay with RSV strain A2 was 9 nM in each case. Turning to `CCCCOC(=O)C(C)NP(=O)(OCC1(C#N)OC(c2ccc3c(N)ncnn23)C(OC(=O)C(C)C)C1OC(=O)C(C)C)Oc1ccccc1` (single isomer, unassigned) [Example 227], the EC50 in the assay with RSV A2 came out at 12 nM; in the assay with RSV strain A2 it was 17 nM.

Take `CC(C)C(=O)OC1C(c2ccc3c(N)ncnn23)OC(C#N)(COP(=O)(NC(C)C(=O)OC2CCN(C)C2)Oc2ccccc2)C1OC(=O)C(C)C` (single isomer, unassigned) [Example 233]: the concentration giving a half-maximal response (EC50) with RSV A2 turned out to be 29 nM; with RSV strain A2, 127 nM. On to `CC(C)C(=O)O[C@H]1[C@H](c2ccc3c(N)ncnn23)O[C@](C#N)(COP(=O)(N[C@@H](C)C(=O)O[C@@H]2CCOC2)Oc2ccccc2)[C@H]1OC(=O)C(C)C` (single isomer, unassigned) [Example 243], for which the concentration giving a half-maximal response (EC50) in the assay with RSV A2 (setting [1]) is 11 nM; with RSV strain A2 it was 15 nM. Regarding `CCOCCOCCOC(=O)[C@H](C)NP(=O)(OC[C@@]1(C#N)O[C@@H](c2ccc3c(N)ncnn23)[C@H](OC(=O)C(C)C)[C@@H]1OC(=O)C(C)C)Oc1ccccc1` (single isomer, unassigned) [Example 263], the EC50 in the assay on RSV strain A2 (setting [2]) is 23 nM. Turning to `CCOC(=O)[C@H](C)NP(=O)(N[C@@H](C)C(=O)OCC)OC[C@@]1(C#N)O[C@@H](c2ccc3c(NC(=O)C(C)C)ncnn23)[C@H](OC(=O)C(C)C)[C@@H]1OC(=O)C(C)C` [Example 145, ((2R,3S,4R,5S)-5-(4-isobutyramidopyrrolo[2,1-f][1,2,4]triazin-7-yl)-2-cyano-3,4-diisobutylatetetrahydrofuran-2-yl)methyl bis-ethyl L-alaninate phosphate], in the assay with RSV A2 (setting [1]), the EC50 is 40 nM. Still for that read-out and setting: with `CC(C)C(=O)O[C@H]1[C@H](c2ccc3c(N)ncnn23)O[C@](C#N)(COP(=O)(N[C@@H](C)C(=O)OCC(C)(C)O)Oc2ccccc2)[C@H]1OC(=O)C(C)C` (stereo partly drawn) [Example 256, (2R,3S,4S,5S)-5-(4-aminopyrrolo[2,1-f][1,2,4]triazin-7-yl)-2-cyano-2-((((((S)-1-(2-hydroxy-2-methylpropoxy)-1-oxopropan-2-yl)amino)(phenoxy)phosphoryl)oxy)methyl)tetrahydrofuran-3,4-diyl bis(2-methylpropanoate)] the figure was 20 nM. In the case of `CC(C)C(=O)O[C@H]1[C@H](c2ccc3c(N)ncnn23)O[C@](C#N)(COP(=O)(N[C@@H](C)C(=O)OCC(C)(C)OP(=O)(O)O)Oc2ccccc2)[C@H]1OC(=O)C(C)C` (stereo partly drawn) [Example 262, (2R,3S,4S,5S)-5-(4-aminopyrrolo[2,1-f][1,2,4]triazin-7-yl)-2-cyano-2-((((((S)-1-(2-methyl-2-(phosphonooxy)propoxy)-1-oxopropan-2-yl)amino)(phenoxy)phosphoryl)oxy)methyl)tetrahydrofuran-3,4-diyl bis(2-methylpropanoate)], the EC50 with RSV strain A2 (setting [2]) is 163 nM.
